Experimental data taken from the supplement of paper PMC11451515.

Tested on: P12-Ichikawa
Test: cell viability relative to DMSO control; higher = less cytotoxic
Details: 48 h
Method in brief: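 In 1536-well plates, 5 μl of leukemia cells were seeded per well: 500 cells/well for NOMO1 or SEM and 1000 cells/well for P12-Ichikawa. Each line had first been adapted for at least four passages in each medium. Library compounds in DMSO were pin-dosed at 11 threefold concentrations between 47 μM and 0.79 nM, and CellTiter-Glo One luminescence was read after 48 h at 37°C. Viability is a per-plate percentage relative to DMSO wells, with cell-free wells as background.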

[1] = HPLM + 10% dialyzed FBS, 0.000781 µM
[2] = HPLM + 10% dialyzed FBS, 0.00234 µM
[3] = HPLM + 10% dialyzed FBS, 0.00702 µM
[4] = HPLM + 10% dialyzed FBS, 0.0211 µM
[5] = HPLM + 10% dialyzed FBS, 0.0632 µM
[6] = HPLM + 10% dialyzed FBS, 0.19 µM
[7] = HPLM + 10% dialyzed FBS, 0.569 µM
[8] = HPLM + 10% dialyzed FBS, 1.71 µM
[9] = HPLM + 10% dialyzed FBS, 5.12 µM
[10] = HPLM + 10% dialyzed FBS, 15.4 µM
[11] = HPLM + 10% dialyzed FBS, 46.1 µM
[12] = RPMI 5 mM glucose + 10% FBS, 0.000781 µM
[13] = RPMI 5 mM glucose + 10% FBS, 0.00234 µM
[14] = RPMI 5 mM glucose + 10% FBS, 0.00702 µM
[15] = RPMI 5 mM glucose + 10% FBS, 0.0211 µM
[16] = RPMI 5 mM glucose + 10% FBS, 0.0632 µM
[17] = RPMI 5 mM glucose + 10% FBS, 0.19 µM
[18] = RPMI 5 mM glucose + 10% FBS, 0.569 µM
[19] = RPMI 5 mM glucose + 10% FBS, 1.71 µM
[20] = RPMI 5 mM glucose + 10% FBS, 5.12 µM
[21] = RPMI 5 mM glucose + 10% FBS, 15.4 µM
[22] = RPMI 5 mM glucose + 10% FBS, 46.1 µM
[23] = RPMI 5 mM glucose + 10% dialyzed FBS, 0.000781 µM
[24] = RPMI 5 mM glucose + 10% dialyzed FBS, 0.00234 µM
[25] = RPMI 5 mM glucose + 10% dialyzed FBS, 0.00702 µM
[26] = RPMI 5 mM glucose + 10% dialyzed FBS, 0.0211 µM
[27] = RPMI 5 mM glucose + 10% dialyzed FBS, 0.0632 µM
[28] = RPMI 5 mM glucose + 10% dialyzed FBS, 0.19 µM
[29] = RPMI 5 mM glucose + 10% dialyzed FBS, 0.569 µM
[30] = RPMI 5 mM glucose + 10% dialyzed FBS, 1.71 µM
[31] = RPMI 5 mM glucose + 10% dialyzed FBS, 5.12 µM
[32] = RPMI 5 mM glucose + 10% dialyzed FBS, 15.4 µM
[33] = RPMI 5 mM glucose + 10% dialyzed FBS, 46.1 µM

Molecule `O=C1C[C@@H](c2ccc(O)cc2)Oc2cc(O)cc(O)c21` has a cell viability [1] of 130%, a cell viability [2] of 119% and a cell viability [3] of 120%. The cell viability [4] was 116%, the cell viability [5] was 119% and the cell viability [6] was 120%. The cell viability [7] was 112%, the cell viability [8] was 110% and the cell viability [9] was 102%. It also gave a cell viability [10] of 114%, a cell viability [11] of 121% and a cell viability [12] of 125%. For the same molecule, the cell viability [13] was 124%, the cell viability [14] was 119% and the cell viability [15] was 124%. For the same molecule, the cell viability [16] was 118%, the cell viability [17] was 129% and the cell viability [18] was 114%. The cell viability [19] was 121%, the cell viability [20] was 107% and the cell viability [21] was 110%. The cell viability [22] was 114%, the cell viability [23] was 120% and the cell viability [24] was 120%. The cell viability [25] was 120%, the cell viability [26] was 122% and the cell viability [27] was 115%. For the same molecule, the cell viability [28] was 130%, the cell viability [29] was 120% and the cell viability [30] was 104%. For the same molecule, the cell viability [31] was 110%, the cell viability [32] was 110% and the cell viability [33] was 103%.
In the case of `NC1=NC=C(C=C1)C2=CC=C3N=CC\4=C(N(C(=O)\C=C4)C5=CC(=CC=C5)C(F)(F)F)C3=C2`, the cell viability [1] is reported as 81.4%, the cell viability [2] is reported as 82.7% and the cell viability [3] is reported as 76.7%. The cell viability [4] was 66.7%, the cell viability [5] was 58.6% and the cell viability [6] was 41.1%. It also gave a cell viability [7] of 42.6%, a cell viability [8] of 34.5% and a cell viability [9] of 11.6%. For the same molecule, the cell viability [10] was 14%, the cell viability [11] was 15.7% and the cell viability [12] was 67.1%. For the same molecule, the cell viability [13] was 64.9%, the cell viability [14] was 56.3% and the cell viability [15] was 51.8%. It also gave a cell viability [16] of 50.4%, a cell viability [17] of 34% and a cell viability [18] of 33.4%. The cell viability [19] was 27.2%, the cell viability [20] was 7.23% and the cell viability [21] was 7.38%. For the same molecule, the cell viability [22] was 11.5%, the cell viability [23] was 64.4% and the cell viability [24] was 74.4%. The cell viability [25] was 59.6%, the cell viability [26] was 52.7% and the cell viability [27] was 50.3%. For the same molecule, the cell viability [28] was 32.9%, the cell viability [29] was 30.4% and the cell viability [30] was 23.7%. It also gave a cell viability [31] of 7.6%, a cell viability [32] of 7.89% and a cell viability [33] of 12.4%.
`CO[C@H]1C[C@@H]2CC[C@@H](C)[C@@](O)(O2)C(=O)C(=O)N2CCCC[C@H]2C(=O)O[C@H]([C@H](C)C[C@@H]2CC[C@@H](OC(=O)C(C)(CO)CO)[C@H](OC)C2)CC(=O)[C@H](C)/C=C(\C)[C@@H](O)[C@@H](OC)C(=O)[C@H](C)C[C@H](C)/C=C/C=C/C=C/1C` gave a cell viability [1] of 110%, a cell viability [2] of 117% and a cell viability [3] of 113%. The cell viability [4] was 106%, the cell viability [5] was 104% and the cell viability [6] was 107%. It also gave a cell viability [7] of 100%, a cell viability [8] of 96% and a cell viability [9] of 87.2%. The cell viability [10] was 83.4%, the cell viability [11] was 77.9% and the cell viability [12] was 92.8%. The cell viability [13] was 111%, the cell viability [14] was 97.6% and the cell viability [15] was 97.8%. It also gave a cell viability [16] of 94.1%, a cell viability [17] of 90% and a cell viability [18] of 87.6%. It also gave a cell viability [19] of 84.4%, a cell viability [20] of 65.8% and a cell viability [21] of 63.3%. It also gave a cell viability [22] of 50.1%, a cell viability [23] of 94.3% and a cell viability [24] of 110%. It also gave a cell viability [25] of 110%, a cell viability [26] of 92% and a cell viability [27] of 92.8%. It also gave a cell viability [28] of 96.7%, a cell viability [29] of 85% and a cell viability [30] of 89.8%. For the same molecule, the cell viability [31] was 78.2%, the cell viability [32] was 66.5% and the cell viability [33] was 52.5%.
`CCC[C@H](N[C@@H](C)C(=O)N1[C@H](C(=O)O)C[C@@H]2CCCC[C@@H]21)C(=O)OCC` was tested, and the cell viability [1] was 110%, the cell viability [2] was 108% and the cell viability [3] was 109%. The cell viability [4] was 113%, the cell viability [5] was 104% and the cell viability [6] was 115%. For the same molecule, the cell viability [7] was 112%, the cell viability [8] was 109% and the cell viability [9] was 93.2%. For the same molecule, the cell viability [10] was 88.1%, the cell viability [11] was 84.7% and the cell viability [12] was 106%. It also gave a cell viability [13] of 103%, a cell viability [14] of 121% and a cell viability [15] of 112%. For the same molecule, the cell viability [16] was 117%, the cell viability [17] was 108% and the cell viability [18] was 106%. The cell viability [19] was 97.9%, the cell viability [20] was 77.1% and the cell viability [21] was 79.5%. It also gave a cell viability [22] of 71.6%, a cell viability [23] of 124% and a cell viability [24] of 99%. For the same molecule, the cell viability [25] was 113%, the cell viability [26] was 111% and the cell viability [27] was 122%. It also gave a cell viability [28] of 116%, a cell viability [29] of 103% and a cell viability [30] of 110%. It also gave a cell viability [31] of 87.3%, a cell viability [32] of 78.3% and a cell viability [33] of 69.8%.
With `CC(=O)C\1=C(/C)C2=CN=C(NC3=CC=C(C=N3)N4CCNCC4)N=C2N(C5CCCC5)C1=O` the cell viability [1] was 111%, the cell viability [2] was 121% and the cell viability [3] was 119%. For the same molecule, the cell viability [4] was 114%, the cell viability [5] was 114% and the cell viability [6] was 110%. The cell viability [7] was 107%, the cell viability [8] was 93.1% and the cell viability [9] was 88.5%. For the same molecule, the cell viability [10] was 77%, the cell viability [11] was 28.9% and the cell viability [12] was 119%. It also gave a cell viability [13] of 116%, a cell viability [14] of 124% and a cell viability [15] of 113%. The cell viability [16] was 113%, the cell viability [17] was 119% and the cell viability [18] was 98.5%. The cell viability [19] was 78.6%, the cell viability [20] was 72.6% and the cell viability [21] was 66.6%. The cell viability [22] was 61%, the cell viability [23] was 122% and the cell viability [24] was 117%. The cell viability [25] was 127%, the cell viability [26] was 117% and the cell viability [27] was 118%. The cell viability [28] was 114%, the cell viability [29] was 104% and the cell viability [30] was 83.4%. It also gave a cell viability [31] of 76.9%, a cell viability [32] of 73% and a cell viability [33] of 45.6%.
Work on `CNC1[C@@H](O)C(O[C@@H]2C(O)C(O[C@H]3O[C@H]([C@@H](C)NC)CC[C@H]3N)[C@@H](N)C[C@H]2N)OC[C@]1(C)O` (stereo partly specified) yielded a cell viability [1] of 104%, a cell viability [2] of 98.3% and a cell viability [3] of 102%. For the same molecule, the cell viability [4] was 99.6%, the cell viability [5] was 96.5% and the cell viability [6] was 102%. The cell viability [7] was 102%, the cell viability [8] was 98.6% and the cell viability [9] was 89.6%. The cell viability [10] was 90.8%, the cell viability [11] was 85.4% and the cell viability [12] was 92.8%. It also gave a cell viability [13] of 88.9%, a cell viability [14] of 97.7% and a cell viability [15] of 91.8%. It also gave a cell viability [16] of 93%, a cell viability [17] of 102% and a cell viability [18] of 95.2%. For the same molecule, the cell viability [19] was 97.1%, the cell viability [20] was 87.9% and the cell viability [21] was 82.4%. The cell viability [22] was 92.2%, the cell viability [23] was 92.7% and the cell viability [24] was 89.9%. It also gave a cell viability [25] of 90%, a cell viability [26] of 93% and a cell viability [27] of 97.8%. It also gave a cell viability [28] of 92.2%, a cell viability [29] of 94.1% and a cell viability [30] of 92.3%. For the same molecule, the cell viability [31] was 89.4%, the cell viability [32] was 82.7% and the cell viability [33] was 88.4%.
Work on `Cc1cccc(-c2nn(C(=S)Nc3ccccc3)cc2-c2ccnc3ccccc23)n1` yielded a cell viability [1] of 115%, a cell viability [2] of 122% and a cell viability [3] of 120%. The cell viability [4] was 117%, the cell viability [5] was 117% and the cell viability [6] was 109%. It also gave a cell viability [7] of 113%, a cell viability [8] of 101% and a cell viability [9] of 109%. For the same molecule, the cell viability [10] was 86.3%, the cell viability [11] was 78.3% and the cell viability [12] was 115%. It also gave a cell viability [13] of 123%, a cell viability [14] of 113% and a cell viability [15] of 124%. It also gave a cell viability [16] of 109%, a cell viability [17] of 117% and a cell viability [18] of 111%. For the same molecule, the cell viability [19] was 100%, the cell viability [20] was 108% and the cell viability [21] was 91.4%. For the same molecule, the cell viability [22] was 74.3%, the cell viability [23] was 121% and the cell viability [24] was 109%. For the same molecule, the cell viability [25] was 122%, the cell viability [26] was 114% and the cell viability [27] was 118%. The cell viability [28] was 110%, the cell viability [29] was 119% and the cell viability [30] was 108%. For the same molecule, the cell viability [31] was 98.9%, the cell viability [32] was 49% and the cell viability [33] was 73.1%.
